Laboratory results published in US20210330611A1, “THERAPY FOR NEUROLOGICAL DISEASES/DISORDERS” (priority 2020, published 2021).
pIC50: −log10 of the molar value. Structures can show the parent of a compound that is named as a salt. Where two headings read alike, the source gives them in different places. Where a SMILES comes first, the peptide text is derived from it. Bridges are numbered along the chain shown (N, C = ends). [ ]: non-standard residue; d: D form. The star is where a group is joined. Ileψ(thiazoline)Cys = CC[C@H](C)[C@H](N)C1=N[C@H](C(=O)*)CS1; dOrn = NCCC[C@@H](N)C(=O)O

Tests used:
primary rat microglia [1] = test: Cell toxicity (dead cells, size <150 μm2) in LPS assay; settings: for LPS % cell toxicity: primary microglia HTS, LPS stimulation, decreased size (<150 μm^2) as marker of toxicity; for IC50: read-out: Cell Toxicity IC50 (uM) [LPS assay], LPS assay
[2] = system: LPS-induced microglia activation; test: Image-based assay of LPS-induced microglia activation (HTS and dose response); type: cell-based, rat; settings: Rattus norvegicus, Microglia; for pIC50: read-out: LPS IC50; for inhibition at 10 µM: primary microglia HTS, LPS stimulation, read-out: LPS % inhibition; for IC50: read-out: LPS IC50 (uM) (Suppl. Table 7)
[3] = system: fibrin-induced microglia activation; test: Image-based assay of fibrin-induced microglia activation (HTS and dose response); type: cell-based, rat; settings: for pIC50 / IC50 / inhibition at 10 µM: Rattus norvegicus, Microglia; for pIC50: read-out: Fibrin IC50; for IC50: read-out: Fibrin IC50 (uM) (Suppl. Table 7); for inhibition at 10 µM: primary microglia HTS, fibrin stimulation, read-out: Fibrin % inhibition
primary rat microglia [4] = test: Cell toxicity (dead cells, size <150 μm2) in coated fibrin (cFib) assay; settings: primary microglia HTS;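 as to Fibrin % cell toxicity: share of dead cells sized under 150 µm2 at 10 µM in fibrin-stimulated microglia HTS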
primary rat microglia [5] = settings: rat
in vitro [6] = settings: rat, Cell Toxicity IC50 (uM) [cFib assay]
in vitro [7] = settings: rat
[8] = system: fibrin- and LPS-induced microglia activation; test: cells; type: cell-based, rat; settings: for inhibition at 10 µM: Rattus norvegicus
[9] = 48 h, Table 1, dose response 0.001-20 μM, triplicates, primary rat microglia, 48 h
[10] = 48 h, increased cell size (>800 μm^2) as marker of activation
[11] = LPS-induced microglia activation, dose response
[12] = dose response, LPS-induced microglia activation
[13] = dose response, fibrin-induced microglia activation
[14] = fibrin-induced microglia activation, dose response
[15] = increased cell size (>800 μm^2) as marker of activation
[16] = fibrin stimulation, decreased size (<150 μm^2) as marker of toxicity
[17] = HTS of 1907 compounds, quadrant by fibrin and LPS inhibition
[18] = Microglia, Table 3, read-out: Cherry-picked Hit (Suppl. Table 7)
[19] = Microglia, HTS hit classification, read-out: Hit
[20] = quadrant by fibrin and LPS inhibition in HTS of 1907 compounds
[21] = fibrin assay, dead cells (size <150 μm2)
[22] = quadrant by fibrin and LPS inhibition, HTS at 10 μM
[23] = hit classification in microglia HTS, read-out: Cherry-picked Hit (Suppl. Table 7)

SMILES	LPS % cell toxicity (primary rat microglia [1])	IC50 (primary rat microglia [1])	pIC50 [2, 9]	inhibition at 10 µM [2, 10]	IC50 [2, 11]	IC50 ([2]; Table 3)	pIC50 [2, 12]	pIC50 [3, 9]	IC50 ([3]; Table 3)	pIC50 [3, 13]	IC50 [3, 14]	inhibition at 10 µM [3, 15]	Fibrin % cell toxicity (primary rat microglia [4]; [16])	LPS % cell toxicity (primary rat microglia [5])	IC50 (in vitro [6]; cFib assay)	pIC50 (in vitro [7])	Quadrant (FIG. 5b) [8, 17]	inhibition at 10 µM [8, 19]	Quadrant (FIG. 5b) ([8]; Table 1, screen at 10 μM)	Quadrant (FIG. 5b) [8, 20]	other results
CC(=O)OCC(=O)[C@@]1(OC(C)=O)[C@@H](C)C[C@H]2[C@@H]3C[C@H](F)C4=CC(=O)C=C[C@]4(C)[C@@]3(F)[C@@H](O)C[C@@]21C [Diflorasone diacetate, reference compound]	1%	> 20 µM	< 4.70	39%	> 20 µM	> 20 µM	< 4.70	8.00	0.01 µM	8.00	0.01 µM	76%	1%	0%	> 20 µM	< 4.70	Q3	> 50%	Q3	Q3	IC50 (primary rat microglia [1]; Table 6): > 20 µM; IC50 ([2]; Table 6): > 20 µM; inhibition at 10 µM ([2]; compounds at 10 μM): 31%; Fibrin Selectivity [3]: 2188; Fibrin Selectivity (LOG10) [3]: 3.34; IC50 ([3]; Table 6): 0.01 µM; inhibition at 10 µM ([3]; compounds at 10 μM): 42%; Fibrin Selectivity (LOG10) ([3]; fibrin vs LPS, LOG10, Table 6): 3.34; Fibrin Selectivity ([3]; fibrin vs LPS, Table 6): 2188; Fibrin % cell toxicity (primary rat microglia [4]; fibrin assay, dead cells (size <150 μm2), compounds at 10 μM): 1%; IC50 (in vitro [6]; Table 3): > 20 µM; IC50 (in vitro [6]; cFib assay, Table 6): > 20 µM; inhibition at 10 µM [8, 18]: > 50%; Quadrant (FIG. 5b) ([8]; Table 3, screen at 10 μM): Q3; Quadrant (FIG. 5b) ([8]; classification by fibrin and LPS inhibition, HTS at 10 μM): Q4; Quadrant (FIG. 5b) ([8]; microglia HTS, Table 6): Q3
C[C@H]1[C@H](OC(=O)CCC(=O)O)O[C@@H]2O[C@@]3(C)CC[C@H]4[C@H](C)CC[C@@H]1[C@@]24OO3 [Artesunate, reference compound]	0%	> 20 µM	< 4.70	20%	> 20 µM	> 20 µM	< 4.70	5.15	7 µM	5.15	7 µM	63%	1%	0%	> 20 µM	< 4.70	Q3	> 50%	Q3	Q3	inhibition at 10 µM ([2]; compounds at 10 μM): 7%; Fibrin Selectivity [3]: 3; Fibrin Selectivity (LOG10) [3]: 0.45; inhibition at 10 µM ([3]; compounds at 10 μM): 47%; Fibrin % cell toxicity (primary rat microglia [4]; [21]): 1%; IC50 (in vitro [6]; Table 3): > 20 µM; inhibition at 10 µM [8, 18]: > 50%; Quadrant (FIG. 5b) ([8]; Table 3, screen at 10 μM): Q3; Quadrant (FIG. 5b) [8, 22]: Q4
CC[C@H](C)[C@H](N)C1=N[C@H](C(=O)N[C@@H](CC(C)C)C(=O)N[C@H](CCC(=O)O)C(=O)N[C@H](C(=O)N[C@H]2CCCCNC(=O)[C@H](CC(N)=O)NC(=O)[C@@H](CC(=O)O)NC(=O)[C@H](Cc3cnc[nH]3)NC(=O)[C@@H](Cc3ccccc3)NC(=O)[C@H]([C@@H](C)CC)NC(=O)[C@@H](CCCN)NC2=O)[C@@H](C)CC)CS1 [Bacitracin, reference compound] ({Ileψ(thiazoline)Cys}-L[dE]IK[dOrn]I[dF]H[dD]N; lactam 4-C)	0%	–	< 4.70	21%	> 20 µM	–	< 4.70	< 4.70	–	< 4.70	> 20 µM	82%	1%	1%	> 20 µM	< 4.70	Q3	> 50%	Q3	Q3	inhibition at 10 µM ([2]; compounds at 10 μM): 6%; inhibition at 10 µM ([3]; compounds at 10 μM): -7%; Fibrin % cell toxicity (primary rat microglia [4]; [21]): 0%; inhibition at 10 µM [8, 23]: > 50%; Quadrant (FIG. 5b) [8, 22]: Q4
CCN1CCCC1CNC(=O)c1cc(S(=O)(=O)CC)c(N)cc1OC (stereo not shown) [Amisulpride, reference compound]	1%	–	< 4.70	31%	> 20 µM	–	< 4.70	4.70	–	4.70	20 µM	54%	2%	0%	> 20 µM	< 4.70	Q3	> 50%	Q3	Q3	inhibition at 10 µM ([2]; compounds at 10 μM): 12%; inhibition at 10 µM ([3]; compounds at 10 μM): -5%; Fibrin % cell toxicity (primary rat microglia [4]; [21]): 1%; inhibition at 10 µM [8, 23]: > 50%; Quadrant (FIG. 5b) [8, 22]: Q4
CC(=O)O[C@@]12CO[C@@H]1C[C@H](O)[C@@]1(C)C(=O)[C@H](O)C3=C(C)[C@@H](OC(=O)[C@H](O)[C@@H](NC(=O)OC(C)(C)C)c4ccccc4)C[C@@](O)([C@@H](OC(=O)c4ccccc4)[C@H]21)C3(C)C [Docetaxel, reference compound]	–	> 20 µM	< 4.70	32%	> 20 µM	> 20 µM	< 4.70	–	0.002 µM	–	–	64%	–	1%	> 20 µM	< 4.70	Q3	> 50%	Q3	Q3	IC50 (primary rat microglia [1]; Table 6): > 20 µM; IC50 ([2]; Table 6): > 20 µM; IC50 ([3]; Table 6): 0.002 µM; Fibrin Selectivity (LOG10) ([3]; fibrin vs LPS, LOG10, Table 6): 3.99; Fibrin Selectivity ([3]; fibrin vs LPS, Table 6): 9814; IC50 (in vitro [6]; Table 3): > 20 µM; IC50 (in vitro [6]; cFib assay, Table 6): > 20 µM; inhibition at 10 µM [8, 18]: > 50%; Quadrant (FIG. 5b) ([8]; Table 3, screen at 10 μM): Q3; Quadrant (FIG. 5b) ([8]; microglia HTS, Table 6): Q3
NCCc1cc[nH]n1 [Betazole hydrochloride, reference compound]	1%	> 20 µM	< 4.70	38%	> 20 µM	> 20 µM	< 4.70	4.92	12 µM	4.92	12 µM	59%	1%	–	> 20 µM	< 4.70	Q3	> 50%	Q3	Q3	Fibrin Selectivity [3]: 2; Fibrin Selectivity (LOG10) [3]: 0.22; IC50 (in vitro [6]; Table 3): > 20 µM; inhibition at 10 µM [8, 18]: > 50%; Quadrant (FIG. 5b) ([8]; Table 3, screen at 10 μM): Q3
S=C=NCc1ccccc1 [Benzyl isothiocyanate, reference compound]	2%	> 20 µM	< 4.70	68%	> 20 µM	> 20 µM	< 4.70	5.00	10 µM	5.00	10 µM	77%	2%	–	> 20 µM	< 4.70	Q2	> 50%	Q2	Q2	Fibrin Selectivity [3]: 2; Fibrin Selectivity (LOG10) [3]: 0.29; IC50 (in vitro [6]; Table 3): > 20 µM; inhibition at 10 µM [8, 18]: > 50%; Quadrant (FIG. 5b) ([8]; Table 3, screen at 10 μM): Q2
CN1CCN2c3ncccc3Cc3ccccc3C2C1 (stereo not shown) [Mirtazapine, reference compound]	1%	–	< 4.70	36%	> 20 µM	–	< 4.70	< 4.70	–	< 4.70	> 20 µM	57%	2%	–	> 20 µM	< 4.70	Q3	> 50%	Q3	Q3	inhibition at 10 µM [8, 23]: > 50%
